Patent US20250281479A1, “TREATMENT OF CAVERNOUS ANGIOMAS WITH A 4-SUBSTITUTED PIPERIDINE DERIVATIVE” (Neurelis, Inc., priority 2024, published 2025)

Tests used:
BCRP = BCRP (Homo sapiens, UniProt Q9UNQ0); experiment: transporter substrate assessment; assay type: in vitro ADME
Procedure: (§1) Exposure to NRL-2017 was similar or greater (up to 5-fold) than that to NRL-1049 in rats when dosed once a day (QD). In monkeys, exposure to NRL-2017 was also greater (up to 33-fold) than that to NRL-1049. When rats were dosed twice a day (BID) for 14 days, there was a decrease in formation of NRL-2017 with exposure to NRL-2017 lower than that of NRL-1049 (ratio as low as 0.06). […] NRL-1049 bound to human serum albumin and human alpha1-acid glycoprotein. […] There was also inhibition of P-glycoprotein (P-gp) (only CACO-2 cells), organic anion transporting polypeptides (OATP) OATP1B1, OATP1B3 and OAT3 (IC50, >100 μM), but no effect on P-gp (MDCK2 cells), breast cancer resistance protein (BCRP), bile salt export pump (BSEP), or MATE2-K. NRL-1049 is a substrate for P-gp, not BCRP. […] This conclusion will be revisited when human pharmacokinetic (PK) data becomes available.

P-gp = P-gp (Homo sapiens, UniProt P08183); experiment: transporter substrate assessment; assay type: in vitro ADME
P-gp, sequence (P08183 whole entry): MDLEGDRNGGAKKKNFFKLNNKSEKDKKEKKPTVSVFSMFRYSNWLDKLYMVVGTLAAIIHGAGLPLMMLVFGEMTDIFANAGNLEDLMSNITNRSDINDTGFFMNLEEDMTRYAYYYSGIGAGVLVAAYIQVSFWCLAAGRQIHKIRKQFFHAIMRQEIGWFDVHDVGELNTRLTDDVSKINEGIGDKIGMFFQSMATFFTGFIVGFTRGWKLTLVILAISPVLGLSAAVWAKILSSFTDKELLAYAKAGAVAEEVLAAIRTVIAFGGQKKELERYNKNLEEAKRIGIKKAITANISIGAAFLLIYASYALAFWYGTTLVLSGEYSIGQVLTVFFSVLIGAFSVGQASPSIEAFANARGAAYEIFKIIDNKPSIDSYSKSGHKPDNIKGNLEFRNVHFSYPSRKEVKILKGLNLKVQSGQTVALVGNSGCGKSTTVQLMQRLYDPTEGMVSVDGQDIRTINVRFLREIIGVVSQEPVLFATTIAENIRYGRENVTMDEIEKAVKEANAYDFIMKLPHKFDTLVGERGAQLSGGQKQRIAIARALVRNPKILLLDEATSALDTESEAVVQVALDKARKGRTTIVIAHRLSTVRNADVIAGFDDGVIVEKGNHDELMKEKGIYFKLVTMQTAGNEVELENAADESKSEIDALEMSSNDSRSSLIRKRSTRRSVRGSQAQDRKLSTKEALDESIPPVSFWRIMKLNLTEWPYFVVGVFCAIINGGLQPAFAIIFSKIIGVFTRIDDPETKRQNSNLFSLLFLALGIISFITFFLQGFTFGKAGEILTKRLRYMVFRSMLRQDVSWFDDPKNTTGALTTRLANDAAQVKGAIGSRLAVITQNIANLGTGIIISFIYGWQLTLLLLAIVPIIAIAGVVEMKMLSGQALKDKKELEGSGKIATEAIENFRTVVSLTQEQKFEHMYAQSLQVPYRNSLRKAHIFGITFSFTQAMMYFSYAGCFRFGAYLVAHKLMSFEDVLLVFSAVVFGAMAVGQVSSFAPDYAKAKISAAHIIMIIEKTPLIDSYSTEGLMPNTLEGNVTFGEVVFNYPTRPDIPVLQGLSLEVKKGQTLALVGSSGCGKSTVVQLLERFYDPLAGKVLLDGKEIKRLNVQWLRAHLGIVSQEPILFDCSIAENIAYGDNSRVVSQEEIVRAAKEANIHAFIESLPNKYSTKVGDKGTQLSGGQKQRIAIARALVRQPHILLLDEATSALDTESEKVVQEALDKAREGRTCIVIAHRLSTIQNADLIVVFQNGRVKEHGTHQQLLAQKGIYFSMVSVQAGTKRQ
Procedure: as §1

MATE2-K = MATE2-K (Homo sapiens, UniProt Q86VL8); assay type: in vitro ADME
MATE2-K, sequence (Q86VL8 1-566 isoform Q86VL8-3): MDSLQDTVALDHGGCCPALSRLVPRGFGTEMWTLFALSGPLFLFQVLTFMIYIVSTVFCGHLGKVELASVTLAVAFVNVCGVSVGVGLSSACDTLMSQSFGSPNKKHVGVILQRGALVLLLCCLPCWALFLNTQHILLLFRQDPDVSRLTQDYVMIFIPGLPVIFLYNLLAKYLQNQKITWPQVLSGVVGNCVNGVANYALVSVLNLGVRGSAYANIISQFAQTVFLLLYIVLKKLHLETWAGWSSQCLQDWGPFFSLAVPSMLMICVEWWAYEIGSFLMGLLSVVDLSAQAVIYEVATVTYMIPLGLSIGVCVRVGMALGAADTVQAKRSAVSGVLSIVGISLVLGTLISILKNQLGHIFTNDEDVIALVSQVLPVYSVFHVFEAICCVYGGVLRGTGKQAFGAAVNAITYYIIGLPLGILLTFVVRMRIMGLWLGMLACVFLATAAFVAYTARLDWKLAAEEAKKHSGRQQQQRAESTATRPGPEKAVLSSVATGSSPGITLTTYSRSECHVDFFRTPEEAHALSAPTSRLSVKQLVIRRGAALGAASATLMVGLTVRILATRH
Procedure: as §1

CYP2D6 = CYP2D6 (Homo sapiens, UniProt P10635); experiment: CYP isozyme mediating metabolism; assay type: in vitro ADME
CYP2D6, sequence (P10635 whole entry): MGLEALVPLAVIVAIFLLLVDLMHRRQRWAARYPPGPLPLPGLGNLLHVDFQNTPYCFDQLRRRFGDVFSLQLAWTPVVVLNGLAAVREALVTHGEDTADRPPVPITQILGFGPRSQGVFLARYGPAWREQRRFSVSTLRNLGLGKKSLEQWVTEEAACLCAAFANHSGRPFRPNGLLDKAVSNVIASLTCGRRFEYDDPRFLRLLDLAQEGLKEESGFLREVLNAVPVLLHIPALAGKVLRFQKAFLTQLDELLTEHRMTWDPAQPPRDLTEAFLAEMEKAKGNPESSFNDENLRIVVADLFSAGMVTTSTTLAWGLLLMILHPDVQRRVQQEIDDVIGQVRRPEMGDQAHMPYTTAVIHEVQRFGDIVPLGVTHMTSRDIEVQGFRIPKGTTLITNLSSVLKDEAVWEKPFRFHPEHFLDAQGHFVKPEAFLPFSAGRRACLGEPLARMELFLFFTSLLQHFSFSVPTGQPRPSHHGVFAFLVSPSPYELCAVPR
Procedure: as §1

plasma protein binding = assay type: in vitro ADME, mouse; details: range over mouse, rat, dog, monkey, minipig and human plasma; read-out: % free drug
Procedure: as §1

plasma protein = plasma protein binding; assay type: in vitro ADME, mouse; details: mouse, rat, dog, monkey, minipig and human plasma
Procedure: as §1

human serum albumin = human serum albumin (Homo sapiens, UniProt P02768); experiment: binding to human serum albumin; assay type: in vitro ADME
human serum albumin, sequence (P02768 25-609): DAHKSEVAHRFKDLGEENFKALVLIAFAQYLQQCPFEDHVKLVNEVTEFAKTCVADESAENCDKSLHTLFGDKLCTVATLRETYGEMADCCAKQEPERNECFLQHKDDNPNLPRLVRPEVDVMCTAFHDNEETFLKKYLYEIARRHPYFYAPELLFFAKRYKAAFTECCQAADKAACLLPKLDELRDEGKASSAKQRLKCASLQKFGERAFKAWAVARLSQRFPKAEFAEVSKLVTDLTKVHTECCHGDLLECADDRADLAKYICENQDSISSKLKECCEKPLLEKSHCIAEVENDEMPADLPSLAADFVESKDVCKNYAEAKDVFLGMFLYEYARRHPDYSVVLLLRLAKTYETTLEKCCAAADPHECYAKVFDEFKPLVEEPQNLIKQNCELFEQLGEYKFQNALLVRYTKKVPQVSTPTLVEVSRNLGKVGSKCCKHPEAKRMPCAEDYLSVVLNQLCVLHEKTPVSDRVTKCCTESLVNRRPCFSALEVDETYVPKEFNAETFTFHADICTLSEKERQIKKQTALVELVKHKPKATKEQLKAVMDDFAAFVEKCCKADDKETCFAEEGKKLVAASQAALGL
Procedure: as §1

[1] = nonclinical pharmacokinetics after a single oral dose; assay type: in vivo, mice, rats, and monkeys
Procedure: as §1

dog hepatocytes = experiment: incubation with dog hepatocytes; assay type: in vitro ADME
Procedure: as §1

CYP1A2 = experiment: CYP induction in hepatocyte culture; assay type: in vitro ADME; details: in at least one hepatocyte culture
Procedure: as §1

CYP3A4 = experiment: CYP induction in hepatocyte culture; assay type: in vitro ADME; details: in at least one hepatocyte culture
Procedure: as §1

BCRP, sequence (Q9UNQ0 whole entry): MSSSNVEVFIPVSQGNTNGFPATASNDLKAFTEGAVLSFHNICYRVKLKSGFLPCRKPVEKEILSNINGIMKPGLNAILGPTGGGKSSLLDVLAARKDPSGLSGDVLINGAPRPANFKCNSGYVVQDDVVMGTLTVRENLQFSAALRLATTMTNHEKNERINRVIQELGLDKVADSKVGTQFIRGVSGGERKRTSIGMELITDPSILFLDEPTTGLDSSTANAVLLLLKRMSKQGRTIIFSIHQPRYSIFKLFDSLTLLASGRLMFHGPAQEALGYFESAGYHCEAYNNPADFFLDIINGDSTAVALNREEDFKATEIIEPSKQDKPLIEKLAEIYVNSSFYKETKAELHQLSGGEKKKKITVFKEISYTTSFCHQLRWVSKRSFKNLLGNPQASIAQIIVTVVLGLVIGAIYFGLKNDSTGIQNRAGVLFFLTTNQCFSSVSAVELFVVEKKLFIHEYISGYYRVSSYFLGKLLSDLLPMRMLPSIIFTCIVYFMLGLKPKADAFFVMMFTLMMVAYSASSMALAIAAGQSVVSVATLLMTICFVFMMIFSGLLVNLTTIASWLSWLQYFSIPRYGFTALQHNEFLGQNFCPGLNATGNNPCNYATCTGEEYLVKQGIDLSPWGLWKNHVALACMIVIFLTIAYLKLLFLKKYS

In the case of `C[C@@H](N)C1CCN(S(=O)(=O)c2cccc3cnccc23)CC1` [NRL-1049], the “substrate for BCRP” value (BCRP) is reported as “not BCRP”, the “substrate for P-gp” value (P-gp) is reported as “substrate” and the effect on transporter (MATE2-K) is reported as “no effect”. For the same compound, the “metabolism by CYP2D6” value (CYP2D6) was “primarily mediated”, the fraction unbound (plasma protein binding) was 0.541 to 0.706 and the plasma protein binding (plasma protein) was “low to moderate”. For the same compound, the “binding to human serum albumin” value (human serum albumin) was “bound”, the exposure versus dose ([1]; in vivo) was “greater than dose-proportional” and the half-life ([1]; mouse, rat, monkey, plasma, single oral dose of NRL-1049, range over mice, rats, and monkeys, read-out: elimination phase half-life (t½)) was 0.57 to 6.8 h. The Tmax ([1]; mouse, rat, monkey, plasma, single oral dose of NRL-1049, range over mice, rats, and monkeys, read-out: time to maximum plasma concentration (Tmax)) was 0.25 to 2 h, the metabolism by hepatocytes (dog hepatocytes) was “not metabolized” and the “induction of CYP1A2” value (CYP1A2) was 3 fold. For the same compound, the “induction of CYP3A4, maximal effective concentration [Emax]” value (CYP3A4) was 2.19 fold and the EC50 (CYP3A4; read-out: induction of CYP3A4, half-maximal effective concentration [EC50]) was 41.5 µM.
